Assays:
Assay type in all cases: functional, cell-based
[1] = biological target: T1, Glucagon-like peptide 1 receptor (Homo sapiens, UniProt P43220); assay: Agonist activity at GLP-1R (unknown origin) expressed in HEK293 cells co-expressing CRE-Luc assessed as increase in intracellular cAMP accumulation in presence of 2% HSA by luciferase based assay
[2] = biological target: T1, Glucagon-like peptide 1 receptor; assay: Agonist activity at GLP-1R (unknown origin) expressed in HEK293 cells co-expressing CRE-Luc assessed as increase in intracellular cAMP accumulation by luciferase based assay
[3] = biological target: T1, Glucagon-like peptide 1 receptor; assay: Agonist activity at GLP-1R (unknown origin) expressed in HEK293 cells co-expressing CRE-Luc assessed as increase in intracellular cAMP accumulation in presence of 10% FBS by luciferase based assay

T1 sequence (P43220 whole entry): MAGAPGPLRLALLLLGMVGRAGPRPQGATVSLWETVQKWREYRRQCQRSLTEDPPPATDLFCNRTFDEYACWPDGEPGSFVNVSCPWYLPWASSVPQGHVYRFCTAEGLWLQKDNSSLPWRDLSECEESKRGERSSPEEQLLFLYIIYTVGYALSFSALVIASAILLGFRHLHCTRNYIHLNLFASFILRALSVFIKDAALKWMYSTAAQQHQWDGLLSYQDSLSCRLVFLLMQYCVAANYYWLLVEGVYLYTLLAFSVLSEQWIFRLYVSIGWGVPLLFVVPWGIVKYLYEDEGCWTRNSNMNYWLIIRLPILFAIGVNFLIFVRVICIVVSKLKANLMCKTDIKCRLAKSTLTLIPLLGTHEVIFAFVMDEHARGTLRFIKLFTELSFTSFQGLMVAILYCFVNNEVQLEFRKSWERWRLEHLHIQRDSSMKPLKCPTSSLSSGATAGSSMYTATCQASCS

EC50 ([1]; read-out: EC50) | EC50 ([2]; read-out: EC50) | EC50 ([3]; read-out: EC50) | EC50 ([1]; hek293) | EC50 ([2]; hek293) | EC50 ([3]; hek293) | SMILES
2.44 pM | 0.16 pM | 0.93 pM | – | – | – | CCOc1ccc(Nc2ccc(/C(=C3C=C/C(=[N+](\CC)Cc4cccc(S(=O)(=O)[O-])c4)C=C/3C)c3ccc(N(CC)Cc4cccc(S(=O)(=O)NCCCCCC(=O)NCCOCCOCCOCCOCCOCCOCCOCCOCCC(=O)NCCCC[C@H](NC(=O)[C@H](C)NC(=O)[C@H](C)NC(=O)[C@H](CCC(N)=O)NC(=O)CNC(=O)[C@H](CCC(=O)O)NC(=O)[C@H](CC(C)C)NC(=O)[C@H](Cc5ccc(O)cc5)NC(=O)[C@H](CO)NC(=O)[C@H](CO)NC(=O)[C@@H](NC(=O)[C@H](CC(=O)O)NC(=O)[C@H](CO)NC(=O)[C@@H](NC(=O)[C@H](Cc5ccccc5)NC(=O)[C@@H](NC(=O)CNC(=O)[C@H](CCC(=O)O)NC(=O)C(C)(C)NC(=O)[C@@H](N)Cc5c[nH]cn5)[C@@H](C)O)[C@@H](C)O)C(C)C)C(=O)N[C@@H](CCC(=O)O)C(=O)N[C@@H](Cc5ccccc5)C(=O)N[C@H](C(=O)N[C@@H](C)C(=O)N[C@@H](Cc5c[nH]c6ccccc56)C(=O)N[C@@H](CC(C)C)C(=O)N[C@H](C(=O)N[C@@H](CCCNC(=N)N)C(=O)NCC(=O)N[C@@H](CCCNC(=N)N)C(=O)NCC(=O)O)C(C)C)[C@@H](C)CC)c4)cc3C)cc2)cc1
8.82 pM | – | – | – | – | – | CCOc1ccc(Nc2ccc(/C(=C3C=C/C(=[N+](\CC)Cc4ccc(S(=O)(=O)[O-])cc4)C=C/3C)c3ccc(N(CC)Cc4cccc(S(=O)(=O)NCCCCCC(=O)NCCCC[C@H](NC(=O)[C@H](C)NC(=O)[C@H](C)NC(=O)[C@H](CCC(N)=O)NC(=O)CNC(=O)[C@H](CCC(=O)O)NC(=O)[C@H](CC(C)C)NC(=O)[C@H](Cc5ccc(O)cc5)NC(=O)[C@H](CO)NC(=O)[C@H](CO)NC(=O)[C@@H](NC(=O)[C@H](CC(=O)O)NC(=O)[C@H](CO)NC(=O)[C@@H](NC(=O)[C@H](Cc5ccccc5)NC(=O)[C@@H](NC(=O)CNC(=O)[C@H](CCC(=O)O)NC(=O)C(C)(C)NC(=O)[C@@H](N)Cc5c[nH]cn5)[C@@H](C)O)[C@@H](C)O)C(C)C)C(=O)N[C@@H](CCC(=O)O)C(=O)N[C@@H](Cc5ccccc5)C(=O)N[C@H](C(=O)N[C@@H](C)C(=O)N[C@@H](Cc5c[nH]c6ccccc56)C(=O)N[C@@H](CC(C)C)C(=O)N[C@H](C(=O)N[C@@H](CCCNC(=N)N)C(=O)NCC(=O)N[C@@H](CCCNC(=N)N)C(=O)NCC(=O)O)C(C)C)[C@@H](C)CC)c4)cc3C)cc2)cc1
– | – | – | No_effect | No_effect | No_effect | CC[C@H](C)[C@H](NC(=O)[C@H](Cc1ccccc1)NC(=O)[C@H](CCC(=O)O)NC(=O)[C@H](CCCCN)NC(=O)[C@H](C)NC(=O)[C@H](C)NC(=O)[C@H](CCC(N)=O)NC(=O)CNC(=O)[C@H](CCC(=O)O)NC(=O)[C@H](CC(C)C)NC(=O)[C@H](Cc1ccc(O)cc1)NC(=O)[C@H](CO)NC(=O)[C@H](CO)NC(=O)[C@@H](NC(=O)[C@H](CC(=O)O)NC(=O)[C@H](CO)NC(=O)[C@@H](NC(=O)[C@H](Cc1ccccc1)NC(=O)[C@@H](NC(=O)CNC(=O)[C@@H](N)CCC(=O)O)[C@@H](C)O)[C@@H](C)O)C(C)C)C(=O)N[C@@H](C)C(=O)N[C@@H](Cc1c[nH]c2ccccc12)C(=O)N[C@@H](CC(C)C)C(=O)N[C@H](C(=O)N[C@@H](CCCNC(=N)N)C(=O)NCC(=O)N[C@@H](CCCNC(=N)N)C(=O)NCC(N)=O)C(C)C
3.22 pM | 1.08 pM | 4.2 pM | – | – | – | CCOc1ccc(Nc2ccc(/C(=C3C=C/C(=[N+](\CC)Cc4ccc(S(=O)(=O)[O-])cc4)C=C/3C)c3ccc(N(CC)Cc4cccc(S(=O)(=O)NCCCCCC(=O)NCc5ccc(C(=O)NCCCC[C@H](NC(=O)[C@H](C)NC(=O)[C@H](C)NC(=O)[C@H](CCC(N)=O)NC(=O)CNC(=O)[C@H](CCC(=O)O)NC(=O)[C@H](CC(C)C)NC(=O)[C@H](Cc6ccc(O)cc6)NC(=O)[C@H](CO)NC(=O)[C@H](CO)NC(=O)[C@@H](NC(=O)[C@H](CC(=O)O)NC(=O)[C@H](CO)NC(=O)[C@@H](NC(=O)[C@H](Cc6ccccc6)NC(=O)[C@@H](NC(=O)CNC(=O)[C@H](CCC(=O)O)NC(=O)C(C)(C)NC(=O)[C@@H](N)Cc6c[nH]cn6)[C@@H](C)O)[C@@H](C)O)C(C)C)C(=O)N[C@@H](CCC(=O)O)C(=O)N[C@@H](Cc6ccccc6)C(=O)N[C@H](C(=O)N[C@@H](C)C(=O)N[C@@H](Cc6c[nH]c7ccccc67)C(=O)N[C@@H](CC(C)C)C(=O)N[C@H](C(=O)N[C@@H](CCCNC(=N)N)C(=O)NCC(=O)N[C@@H](CCCNC(=N)N)C(=O)NCC(=O)O)C(C)C)[C@@H](C)CC)cc5)c4)cc3C)cc2)cc1
3.94 pM | 0.79 pM | 2.93 pM | – | – | – | CCOc1ccc(Nc2ccc(/C(=C3C=C/C(=[N+](\CC)Cc4cccc(S(=O)(=O)[O-])c4)C=C/3C)c3ccc(N(CC)Cc4cccc(S(=O)(=O)NCCCCCC(=O)NCCOCCOCC(=O)NCCOCCOCC(=O)NCCCC[C@H](NC(=O)[C@H](C)NC(=O)[C@H](C)NC(=O)[C@H](CCC(N)=O)NC(=O)CNC(=O)[C@H](CCC(=O)O)NC(=O)[C@H](CC(C)C)NC(=O)[C@H](Cc5ccc(O)cc5)NC(=O)[C@H](CO)NC(=O)[C@H](CO)NC(=O)[C@@H](NC(=O)[C@H](CC(=O)O)NC(=O)[C@H](CO)NC(=O)[C@@H](NC(=O)[C@H](Cc5ccccc5)NC(=O)[C@@H](NC(=O)CNC(=O)[C@H](CCC(=O)O)NC(=O)C(C)(C)NC(=O)[C@@H](N)Cc5c[nH]cn5)[C@@H](C)O)[C@@H](C)O)C(C)C)C(=O)N[C@@H](CCC(=O)O)C(=O)N[C@@H](Cc5ccccc5)C(=O)N[C@H](C(=O)N[C@@H](C)C(=O)N[C@@H](Cc5c[nH]c6ccccc56)C(=O)N[C@@H](CC(C)C)C(=O)N[C@H](C(=O)N[C@@H](CCCNC(=N)N)C(=O)NCC(=O)N[C@@H](CCCNC(=N)N)C(=O)NCC(=O)O)C(C)C)[C@@H](C)CC)c4)cc3C)cc2)cc1
4.31 pM | 0.83 pM | 1.46 pM | – | – | – | CCOc1ccc(Nc2ccc(/C(=C3C=C/C(=[N+](\CC)Cc4cccc(S(=O)(=O)[O-])c4)C=C/3C)c3ccc(N(CC)Cc4cccc(S(=O)(=O)NCCCCCC(=O)NCCOCCOCC(=O)NCCOCCOCC(=O)NCCOCCOCC(=O)NCCCC[C@H](NC(=O)[C@H](C)NC(=O)[C@H](C)NC(=O)[C@H](CCC(N)=O)NC(=O)CNC(=O)[C@H](CCC(=O)O)NC(=O)[C@H](CC(C)C)NC(=O)[C@H](Cc5ccc(O)cc5)NC(=O)[C@H](CO)NC(=O)[C@H](CO)NC(=O)[C@@H](NC(=O)[C@H](CC(=O)O)NC(=O)[C@H](CO)NC(=O)[C@@H](NC(=O)[C@H](Cc5ccccc5)NC(=O)[C@@H](NC(=O)CNC(=O)[C@H](CCC(=O)O)NC(=O)C(C)(C)NC(=O)[C@@H](N)Cc5c[nH]cn5)[C@@H](C)O)[C@@H](C)O)C(C)C)C(=O)N[C@@H](CCC(=O)O)C(=O)N[C@@H](Cc5ccccc5)C(=O)N[C@H](C(=O)N[C@@H](C)C(=O)N[C@@H](Cc5c[nH]c6ccccc56)C(=O)N[C@@H](CC(C)C)C(=O)N[C@H](C(=O)N[C@@H](CCCNC(=N)N)C(=O)NCC(=O)N[C@@H](CCCNC(=N)N)C(=O)NCC(=O)O)C(C)C)[C@@H](C)CC)c4)cc3C)cc2)cc1
14.5 pM | 3.35 pM | – | – | – | – | CCOc1ccc(Nc2ccc(/C(=C3C=C/C(=[N+](\CC)Cc4cccc(S(=O)(=O)[O-])c4)C=C/3C)c3ccc(N(CC)Cc4cccc(S(=O)(=O)NCCCCCC(=O)NCCOCCOCC(=O)NCCCC[C@H](NC(=O)[C@H](C)NC(=O)[C@H](C)NC(=O)[C@H](CCC(N)=O)NC(=O)CNC(=O)[C@H](CCC(=O)O)NC(=O)[C@H](CC(C)C)NC(=O)[C@H](Cc5ccc(O)cc5)NC(=O)[C@H](CO)NC(=O)[C@H](CO)NC(=O)[C@@H](NC(=O)[C@H](CC(=O)O)NC(=O)[C@H](CO)NC(=O)[C@@H](NC(=O)[C@H](Cc5ccccc5)NC(=O)[C@@H](NC(=O)CNC(=O)[C@H](CCC(=O)O)NC(=O)C(C)(C)NC(=O)[C@@H](N)Cc5c[nH]cn5)[C@@H](C)O)[C@@H](C)O)C(C)C)C(=O)N[C@@H](CCC(=O)O)C(=O)N[C@@H](Cc5ccccc5)C(=O)N[C@H](C(=O)N[C@@H](C)C(=O)N[C@@H](Cc5c[nH]c6ccccc56)C(=O)N[C@@H](CC(C)C)C(=O)N[C@H](C(=O)N[C@@H](CCCNC(=N)N)C(=O)NCC(=O)N[C@@H](CCCNC(=N)N)C(=O)NCC(=O)O)C(C)C)[C@@H](C)CC)c4)cc3C)cc2)cc1
3.29 pM | 0.63 pM | – | – | – | – | CCOc1ccc(Nc2ccc(/C(=C3C=C/C(=[N+](\CC)Cc4cccc(S(=O)(=O)[O-])c4)C=C/3C)c3ccc(N(CC)Cc4cccc(S(=O)(=O)NCCCCCC(=O)N[C@@H](CCC(=O)NCCOCCOCC(=O)NCCCC[C@H](NC(=O)[C@H](C)NC(=O)[C@H](C)NC(=O)[C@H](CCC(N)=O)NC(=O)CNC(=O)[C@H](CCC(=O)O)NC(=O)[C@H](CC(C)C)NC(=O)[C@H](Cc5ccc(O)cc5)NC(=O)[C@H](CO)NC(=O)[C@H](CO)NC(=O)[C@@H](NC(=O)[C@H](CC(=O)O)NC(=O)[C@H](CO)NC(=O)[C@@H](NC(=O)[C@H](Cc5ccccc5)NC(=O)[C@@H](NC(=O)CNC(=O)[C@H](CCC(=O)O)NC(=O)C(C)(C)NC(=O)[C@@H](N)Cc5c[nH]cn5)[C@@H](C)O)[C@@H](C)O)C(C)C)C(=O)N[C@@H](CCC(=O)O)C(=O)N[C@@H](Cc5ccccc5)C(=O)N[C@H](C(=O)N[C@@H](C)C(=O)N[C@@H](Cc5c[nH]c6ccccc56)C(=O)N[C@@H](CC(C)C)C(=O)N[C@H](C(=O)N[C@@H](CCCNC(=N)N)C(=O)NCC(=O)N[C@@H](CCCNC(=N)N)C(=O)NCC(=O)O)C(C)C)[C@@H](C)CC)C(=O)O)c4)cc3C)cc2)cc1

Reference: ChEMBL document CHEMBL6109125, “A New Protractor Potentiates Glucagon-Like Peptide 1 with Slow-Release Depot and Long-Term Action” (J Med Chem, 2025)
